Results: a melting point compilation (Tetko et al.; mined from patent text by program, amines drawn as free bases though some values may be those of a salt)

Row | SMILES | melting point [°C]
1 | CC12CCC(=O)C=C1CCC1C2CCC2(C)C1CCC2(O)C(N)=O (configuration not stated) | 233 to 234
2 | C#CCC(=NO)C1=CCCN(C)C1 | 55 to 57
3 | CC(C)(C)c1cc(CC2SCNC2=O)ccc1O (configuration not stated) | 65 to 70
4 | Fc1ccc(C2=CC(=C(C(F)(F)F)C(F)(F)F)N=C2c2ccc(F)cc2)cc1 | 145 to 146
5 | Cc1ccc(-c2nc(COc3ccc(CCCn4ccnc4)cc3)co2)s1 | 83 to 84
6 | NC(=O)C1CCc2sc3ccc(F)cc3c2C1 (configuration not stated) | 201 to 202
7 | CC(C)Oc1cc(-n2nc(Cl)n(C(F)F)c2=O)c(Cl)cc1Cl | 115 to 119
8 | CCCCCCCCCCCCCCOc1ccc(CN)cc1 | 62 to 64
9 | CCCCn1c(=O)c2cn(S(=O)(=O)c3ccc(OC(F)(F)F)cc3)nc2n(CCCC)c1=O | 135 to 137
10 | ON=C1c2ccccc2-c2c1c(-n1ccnc1)nc1ccc(Br)cc21 | 268 to 271
11 | CCC1(O)CCC2C3CCC4=C(CC=C(OC)C4)C3CCC21C (configuration not stated) | 131 to 134
12 | COc1ccc2c(c1)-c1noc(N3CCCNCC3)c1CC2 | 106 to 109
13 | COC(=O)c1nn(C2CCCCO2)cc1NC(=O)c1ccccn1 (configuration not stated) | 131 to 132
14 | C#CCOc1cc(-n2nnn(CCC)c2=O)c(Cl)cc1Cl | 70 to 72
15 | ON=c1cc(-c2cc3cccn3cn2)oc2ccc(OCCc3ccc(Cl)cc3)cc12 | 247 to 249
16 | CCC12CCC3C4CCCC=C4CCC3C1CCC2O (configuration not stated) | 118 to 120
17 | CCNC(=O)c1c(Cl)cccc1[Si](C)(C)C(C)C | 98 to 100
18 | CCOC(=O)C1=Cc2cc(Cl)cc(C)c2NC1C(F)(F)F (configuration not stated) | 154 to 155
19 | CC(=O)N[C@@H]1[C@@H](CC2CO2)CC(C(=O)O)=C[C@H]1OC(C)C (some centres not stated) | 156 to 157
20 | Cc1nc2oc3c(c2c(=O)[nH]1)CCCC3 | > 300
21 | CCOC(=O)NC(=O)C(=NNc1cc(Cl)c(C(C)(C)C#N)c(Cl)c1)C(=O)NC(=O)OCC | 212
22 | O=C(CC(F)(F)F)NCC(=O)n1ccc2cc(/C=C/C(c3cc(Cl)c(F)c(Cl)c3)C(F)(F)F)ccc21 (configuration not stated) | 121 to 126
23 | N#Cc1cccc(C2=Nc3ccc(-c4cccc(F)c4F)cc3NC(=O)C2)c1 | 240
24 | O=C(O)c1cc(C(=O)O)c(C(O)=NCO)cc1C(O)=NCO | 300
25 | O=C1c2ccc(Nc3ccccc3)nc2CC2CCCCC12 (configuration not stated) | 214 to 216
26 | Cc1nc(C(C)(O)c2nc(C)c(C)s2)sc1C | 143 to 144

Row | SMILES | melting point [°C]
27 | O=C1C2=CSCCN2C(=O)N1c1ccc(Cl)cc1F | 118 to 120
28 | CCCCCN1C(=O)C(O)(c2ccc3c(c2)OCO3)c2cccnc21 (configuration not stated) | 104 to 105
29 | O=c1c2ccc(Cl)cc2[nH]c2c(O)nn(-c3ccc(O)c(Cl)c3)c(=O)c12 | 350 to 353
30 | O=c1ccc(-c2c(-c3ccccc3)nn3ccccc23)nn1-c1ccccc1 | 170
31 | Cc1ccc(Oc2cccc(-c3nnc(Nc4ccc(Cl)c(Cl)c4)s3)c2)cc1 | 210 to 211
32 | CCCCCN(C)C12CN3CN(CN(C3)C1)C2 | 30 to 31
33 | CC1Cc2ccccc2C(=O)C1n1ccnc1 (configuration not stated) | 153 to 155
34 | CC(C)c1cc(Oc2ccc(Cl)cc2)nc(C(C)C)c1NC(=S)NC(C)(C)C | 165 to 167
35 | NC(Cc1ccc2c(c1)CCC2)=NO | 60
36 | c1coc(-c2nc(NCC3CC3)cc(-n3cccn3)n2)c1 | 101 to 102
37 | OC(c1ccccc1)(c1ncc[nH]1)c1ccccc1Cl (configuration not stated) | 186 to 188
38 | Nc1c(-c2ccc(-c3ccccc3F)cc2)nc2ccc(F)cc2c1C(=O)O | 248 to 250
39 | CC(=O)Nc1cc(-c2ccncn2)c[nH]c1=O | > 250
40 | CC1SC(=O)NN=C1c1ccc2c(c1)C1(CCCS1)C(=O)N2 (configuration not stated) | 205
41 | CC(C)(C)c1cc(-c2nc(O)ns2)cc(C(C)(C)C)c1O | 230 to 232
42 | N=C(N)Nc1nc(-c2cccc(N)c2)cs1 | 180 to 182
43 | Cc1cc(C)c(O)c(CC(C)(C)CO)c1 | 117
44 | Cc1ccccc1N1CNC(=O)C12CCN(C(=O)c1cc(C(F)(F)F)cc(C(F)(F)F)c1)CC2 | 164 to 168
45 | COc1cc(N)c2c(c1)C(=O)CCN2 | 107 to 110
46 | FC(F)(F)c1cc(Cl)c(-n2cnc(C(F)(F)C(F)(F)Cl)c2)c(Cl)c1 | 101
47 | NCCN1CCC(Nc2nc3cncnc3n2Cc2ccc(F)cc2)CC1 | 146
48 | O=C(c1ccc(F)c(F)c1)N1CCC[C@H](c2nc(-c3ccccc3)no2)C1 | 149 to 151
49 | O=C(O)CNC(=O)C(CS)Cc1ccc2c(c1)OCO2 (racemic) | 94
50 | CC1CCN(c2c(C#N)c3c(c4c2Cc2ccccc2-4)-c2ccccc2C3)CC1 | 166 to 168
51 | CC#CCC/C=C/CC(=O)O | 43 to 45

Results, then the compound that gave them:

Row | melting point [°C] | SMILES
52 | 208 to 209 | Cc1nc2c(N)nc3ccccc3c2n1CCCNC(=O)C1CCCC1
53 | 216 to 218 | CCCc1c(OCCc2ccc3cc(O)c(O)cc3c2)ccc(C(=O)O)c1O
54 | 124 to 127 | CCOC(=O)C1=Cc2cc(-c3ccc(OCC)cc3)ccc2OCC1
55 | 124 to 125 | Cc1nc2c(O)cccn2c(=O)c1Cc1ccccc1
56 | 173 to 195 | CC=C(c1ccccc1)c1c(C)nn(C)c1NC(=O)Nc1ccccc1
57 | 153 | O=C(c1ccccc1)N1CCN(CC(O)Cn2c3ccccc3c3ccccc32)CC1 (configuration not stated)
58 | 98 to 100 | CNc1cc2c(cc1Cl)CCN(C)C[C@@H]2c1ccccc1
59 | 120 | Nc1cccc(S(=O)(=O)Nc2ccccc2NNC=O)c1
60 | 130 | CCN(CC)C(=O)c1cc(-c2ccc(Cl)cc2)nc2ccc(Cl)cc12
61 | 141 to 142 | CCOC(=O)C1=C(C)NC(C)=C(C(=O)OCC)C1c1ccccc1/C=C(\C)c1ccccc1
62 | 174 to 177 | O=C(O)C1CCCC(NC(=O)C(CS)Cc2ccccc2)C1 (configuration not stated)
63 | 137 to 138 | NNC(=O)c1ccc2occ(-c3cccc(OC(F)(F)F)c3)c2c1
64 | 114 to 116 | CCOC(=O)Nn1cccc1C(=O)c1ccc(Cl)cc1Cl
65 | 81 | CCOC(=O)C[C@H]1c2ccc(OC)cc2CC[C@H]1c1ccc(OC)cc1 (racemic)
66 | 103 to 109 | O=Cc1ccccc1C(=O)c1ccc(Br)cc1
67 | 87 to 89 | CCCCN(C)C(=O)CS(=O)CCCCCOc1ccc(C2=C(c3ccccc3)CCCc3cc(O)ccc32)cc1 (configuration not stated)
68 | 102 to 105 | CCOC(=O)CCCCCNS(=O)(=O)c1ccc(Cl)cc1
69 | 237 to 241 | Cc1ccc(C(=O)C2=C(O)C(=O)N(c3ncc(S(=O)(=O)N(C)C)s3)C2c2ccc(C(C)C)cc2)cc1 (configuration not stated)
70 | 60 to 63 | COC(=O)C1=C(C)NC(C)=C(C(=O)OCCN2CCCN(C(c3ccccc3)c3ccccc3)CC2)C1c1cccc([N+](=O)[O-])c1 (configuration not stated)
71 | 129 to 131 | CC(C)(C)c1ccc(C(O)CCCN2CCC(OC(c3ccccc3)c3ccccc3)CC2)cc1 (configuration not stated)
72 | 266 to 267 | Cc1ccc2nc3n(c(=O)c2c1)-c1ccccc1C3=O
73 | 96 to 97 | CCOC(=O)c1nccn1CCCCc1ccc(OCc2coc(/C=C/c3ccccc3)n2)cc1
74 | 87 to 89 | Cc1noc(NS(=O)(=O)c2ccccc2F)c1Br
75 | 153 to 155 | CC[C@H](C)[C@H](OCc1ccccc1)[C@H]1[C@H]([N+](=O)[O-])[C@@H]([C@@H](OCc2ccccc2)C(C)C)N[C@@H]1C(=O)NCC(=O)O
76 | 143 | Cc1ccc(S(=O)(=O)N2CCCC2c2ccccc2F)cc1 (racemic)
77 | 126 to 127 | COc1cc(C=CC(=O)c2cccc(O)c2)cc(OC)c1

Row | melting point [°C] | SMILES
78 | 75.5 | COc1cc(N)ccc1C(=O)NC1(C)CCN(CCCOc2ccc(F)cc2)CC1
79 | 50 to 54 | COC=C(Oc1cccc(-c2ccc(Cl)cc2)n1)C(=O)OC
80 | 143 | Cc1cccc(-c2cccc(OC3SCC(O)C(O)C3O)c2)n1 (configuration not stated)
81 | 133 to 135 | COc1ccccc1-c1ccc2cnc(Nc3ccc(OCCN4CCOCC4)cc3)nn12
82 | 69 | Cc1ccc(Br)c(S(=O)(=O)C(F)(F)F)c1
83 | 98 to 99 | O=C(c1ccccc1CBr)c1ccc(F)cc1CBr
84 | 146 | COc1cc2c(cc1OC)CN(CCCc1ccc(NC(=O)c3cc4ccccc4cn3)cc1)CC2
85 | 58 to 60 | CC(C)(C)OC(=O)N1C2CCC1CN(Cc1ccccc1)C2
86 | 152 to 154 | O=C(Nc1cc(C(F)(F)F)on1)c1ccccc1
87 | 126 to 128 | Cc1cccc(C(=O)NC(C)C)c1[N+](=O)[O-]
88 | 205 to 208 | COc1ccc(CNc2nc(N3CCC[C@H]3CO)ncc2C(=O)O)cc1Cl
89 | 156 to 158 | C(=Cc1cc(OCc2ccccc2)cc(OCc2ccccc2)c1)c1ccc(OCc2ccccc2)cc1
90 | 202 to 204 | COc1ccc(NC(=O)/C=C/c2cc(OC)c(OC)c(OC)c2)cc1N
91 | 166 to 167 | O=C(OCc1ccccc1)N1CCc2c(sc3nc(CCl)c(Cl)c(-c4ccc(OCC(F)(F)F)cc4)c23)C1
92 | 146 to 148 | CN(c1ccccc1)S(=O)(=O)c1ccc(C=CC(C)(O)C(F)(F)F)cc1 (configuration not stated)
93 | 208 to 209 | O=C(Nc1cc(-c2ccc(Cl)cc2)no1)c1c(Cl)cccc1Cl
94 | 78 to 80 | N#Cc1ccc(OCC(O)CCCl)cc1 (configuration not stated)
95 | 210 to 212 | CCOC(=O)c1cn(-c2ccccc2)c2oc(CN3CCOCC3)cc2c1=O
96 | 178 | Cc1c(C(=O)OCc2ccccc2)sc2ccc3[nH]c4c(c3c12)CNCC4
97 | 179 to 181 | CCCn1c(=O)c2c(nc(/C=C/c3ccc(OC(C)=O)c(OC)c3)n2C)n(CCC)c1=O
98 | 266 to 270 | COc1ccc2c(c1)c1c3c(c(-c4ccccc4)cc1n2CCC(N)=O)C(=O)NC3=O
99 | 84 to 87 | CC(C)CCCC(C)NC(=O)CCC(=O)c1ccccc1 (configuration not stated)
100 | 103 to 105 | COc1cc(S(C)(=O)=O)c(C)cc1OCC(=O)NCC(O)COc1ccccc1 (configuration not stated)
101 | 216 to 219 | O=C(O)c1cc(=O)c2ccc(COc3ccc(OCc4ccc5ccccc5n4)cc3)cc2o1
102 | 188 to 190 | O=c1[nH]cc(-c2cccnc2)nc1Cc1ccccc1
